Measured values from ChEMBL document CHEMBL4364276, “Discovery of 4-phenyl-2H-benzo[b][1,4]oxazin-3(4H)-one derivatives as potent and orally active PI3K/mTOR dual inhibitors” (Eur J Med Chem, 2019).

What was measured:
PI3K p110 beta/p85 alpha = PI3K p110 beta/p85 alpha (Homo sapiens, UniProt P42338); assay: Inhibition of recombinant human full length N-terminal GST-tagged PI3Kbeta (1 to 1070 residues)/PIK3R1 (1 to 724 residues) expressed in baculovirus expression system using PIP2 as substrate incubated for 2 hrs by ADP-Glo assay
[1] = biological target: Tyrosine-protein kinase ABL2 (Homo sapiens) (UniProt P42684); assay: Inhibition of human ABL2 at 100 nM using EAIYAAPFAKKK as substrate by [gamma-33P]-ATP assay
Tyrosine-protein kinase ABL2 (Homo sapiens), sequence (P42684 whole entry): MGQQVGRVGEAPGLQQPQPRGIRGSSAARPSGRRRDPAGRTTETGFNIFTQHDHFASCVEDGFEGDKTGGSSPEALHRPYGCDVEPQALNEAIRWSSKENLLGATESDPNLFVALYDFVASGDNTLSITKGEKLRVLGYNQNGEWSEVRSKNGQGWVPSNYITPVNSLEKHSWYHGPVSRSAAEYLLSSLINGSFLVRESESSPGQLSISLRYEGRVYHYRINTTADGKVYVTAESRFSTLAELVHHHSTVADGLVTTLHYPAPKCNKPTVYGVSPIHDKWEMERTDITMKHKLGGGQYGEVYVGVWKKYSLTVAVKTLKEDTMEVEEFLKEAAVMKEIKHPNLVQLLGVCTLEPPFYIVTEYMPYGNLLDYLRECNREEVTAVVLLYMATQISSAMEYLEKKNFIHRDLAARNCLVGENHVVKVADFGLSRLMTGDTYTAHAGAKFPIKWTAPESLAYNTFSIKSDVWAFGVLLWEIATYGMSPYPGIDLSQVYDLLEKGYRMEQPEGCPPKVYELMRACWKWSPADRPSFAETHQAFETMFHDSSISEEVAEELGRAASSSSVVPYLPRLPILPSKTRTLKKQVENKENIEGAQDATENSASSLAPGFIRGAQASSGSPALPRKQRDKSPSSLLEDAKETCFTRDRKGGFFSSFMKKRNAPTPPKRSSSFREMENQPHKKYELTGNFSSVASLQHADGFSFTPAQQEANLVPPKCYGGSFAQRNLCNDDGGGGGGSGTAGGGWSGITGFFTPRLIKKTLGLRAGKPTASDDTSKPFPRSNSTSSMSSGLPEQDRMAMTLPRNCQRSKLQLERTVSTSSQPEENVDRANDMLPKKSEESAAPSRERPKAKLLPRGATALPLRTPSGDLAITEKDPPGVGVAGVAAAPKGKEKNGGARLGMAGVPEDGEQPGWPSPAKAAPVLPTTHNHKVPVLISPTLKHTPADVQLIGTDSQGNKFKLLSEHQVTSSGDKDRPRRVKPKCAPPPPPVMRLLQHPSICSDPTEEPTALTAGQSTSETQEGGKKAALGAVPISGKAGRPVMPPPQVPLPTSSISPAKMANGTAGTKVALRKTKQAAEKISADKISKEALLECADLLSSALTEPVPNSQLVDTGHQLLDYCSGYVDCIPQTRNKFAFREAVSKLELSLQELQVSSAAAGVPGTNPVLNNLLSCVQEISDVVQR

[2] = biological target: Bone morphogenetic protein receptor type-1A (Homo sapiens) (UniProt P36894); assay: Inhibition of human ALK3 at 100 nM using casein as substrate by [gamma-33P]-ATP assay
[3] = biological target: Tyrosine-protein kinase BTK (Homo sapiens) (UniProt Q06187); assay: Inhibition of human BTK at 100 nM using KVEKIGEGTYGVVYK as substrate by [gamma-33P]-ATP assay
[4] = biological target: CDK3/Cyclin-E2 (Homo sapiens) (UniProt O96020+Q00526); assay: Inhibition of human CDK3/cyclin-E2 at 100 nM using histone H1 as substrate by [gamma-33P]-ATP assay; type: protein-complex assay
[5] = biological target: Cyclin-dependent kinase 4/cyclin D1 (Homo sapiens) (UniProt P11802+P24385); assay: Inhibition of human CDK4/cyclin-D1 at 100 nM using RB protein as substrate by [gamma-33P]-ATP assay; type: protein-complex assay
[6] = biological target: CDK6/cyclin D1 (Homo sapiens) (UniProt P24385+Q00534); assay: Inhibition of human CDK6/cyclin-D1 at 100 nM using RB protein as substrate by [gamma-33P]-ATP assay; type: protein-complex assay
[7] = biological target: Mitogen-activated protein kinase 15 (Homo sapiens) (UniProt Q8TD08); assay: Inhibition of human ERK7 at 100 nM using MBP as substrate by [gamma-33P]-ATP assay
Mitogen-activated protein kinase 15 (Homo sapiens), sequence (Q8TD08 whole entry): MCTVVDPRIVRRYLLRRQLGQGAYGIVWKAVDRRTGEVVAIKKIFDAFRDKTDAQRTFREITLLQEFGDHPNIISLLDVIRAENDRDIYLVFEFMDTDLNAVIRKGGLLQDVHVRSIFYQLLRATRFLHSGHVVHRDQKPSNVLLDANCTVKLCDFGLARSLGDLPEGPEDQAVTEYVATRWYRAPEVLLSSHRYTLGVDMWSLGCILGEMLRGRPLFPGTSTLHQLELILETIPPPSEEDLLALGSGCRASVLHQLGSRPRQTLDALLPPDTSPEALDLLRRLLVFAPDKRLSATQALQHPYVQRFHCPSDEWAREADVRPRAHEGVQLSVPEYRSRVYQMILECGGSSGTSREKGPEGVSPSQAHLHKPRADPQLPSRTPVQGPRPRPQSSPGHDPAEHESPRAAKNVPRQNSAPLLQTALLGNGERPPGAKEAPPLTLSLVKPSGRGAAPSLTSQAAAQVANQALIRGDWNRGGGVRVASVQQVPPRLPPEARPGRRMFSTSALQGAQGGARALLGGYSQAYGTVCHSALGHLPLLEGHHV

[8] = biological target: G protein-coupled receptor kinase 3 (Homo sapiens) (UniProt P35626); assay: Inhibition of human GRK3 at 100 nM using casein as substrate by [gamma-33P]-ATP assay
[9] = biological target: G protein-coupled receptor kinase 5 (Homo sapiens) (UniProt P34947); assay: Inhibition of human GRK5 at 100 nM using casein as substrate by [gamma-33P]-ATP assay
[10] = biological target: Mitogen-activated protein kinase 9 (Homo sapiens) (UniProt P45984); assay: Inhibition of human JNK2 at 100 nM using ATF2 as substrate by [gamma-33P]-ATP assay
[11] = biological target: Mitogen-activated protein kinase kinase kinase kinase 5 (Homo sapiens) (UniProt Q9Y4K4); assay: Inhibition of human KHS at 100 nM using MBP as substrate by [gamma-33P]-ATP assay
[12] = biological target: Serine/threonine-protein kinase LATS1 (Homo sapiens) (UniProt O95835); assay: Inhibition of human LATS1 at 100 nM using KKRNRRLSVA as substrate by [gamma-33P]-ATP assay
Serine/threonine-protein kinase LATS1 (Homo sapiens), sequence (O95835 whole entry, canonical isoform): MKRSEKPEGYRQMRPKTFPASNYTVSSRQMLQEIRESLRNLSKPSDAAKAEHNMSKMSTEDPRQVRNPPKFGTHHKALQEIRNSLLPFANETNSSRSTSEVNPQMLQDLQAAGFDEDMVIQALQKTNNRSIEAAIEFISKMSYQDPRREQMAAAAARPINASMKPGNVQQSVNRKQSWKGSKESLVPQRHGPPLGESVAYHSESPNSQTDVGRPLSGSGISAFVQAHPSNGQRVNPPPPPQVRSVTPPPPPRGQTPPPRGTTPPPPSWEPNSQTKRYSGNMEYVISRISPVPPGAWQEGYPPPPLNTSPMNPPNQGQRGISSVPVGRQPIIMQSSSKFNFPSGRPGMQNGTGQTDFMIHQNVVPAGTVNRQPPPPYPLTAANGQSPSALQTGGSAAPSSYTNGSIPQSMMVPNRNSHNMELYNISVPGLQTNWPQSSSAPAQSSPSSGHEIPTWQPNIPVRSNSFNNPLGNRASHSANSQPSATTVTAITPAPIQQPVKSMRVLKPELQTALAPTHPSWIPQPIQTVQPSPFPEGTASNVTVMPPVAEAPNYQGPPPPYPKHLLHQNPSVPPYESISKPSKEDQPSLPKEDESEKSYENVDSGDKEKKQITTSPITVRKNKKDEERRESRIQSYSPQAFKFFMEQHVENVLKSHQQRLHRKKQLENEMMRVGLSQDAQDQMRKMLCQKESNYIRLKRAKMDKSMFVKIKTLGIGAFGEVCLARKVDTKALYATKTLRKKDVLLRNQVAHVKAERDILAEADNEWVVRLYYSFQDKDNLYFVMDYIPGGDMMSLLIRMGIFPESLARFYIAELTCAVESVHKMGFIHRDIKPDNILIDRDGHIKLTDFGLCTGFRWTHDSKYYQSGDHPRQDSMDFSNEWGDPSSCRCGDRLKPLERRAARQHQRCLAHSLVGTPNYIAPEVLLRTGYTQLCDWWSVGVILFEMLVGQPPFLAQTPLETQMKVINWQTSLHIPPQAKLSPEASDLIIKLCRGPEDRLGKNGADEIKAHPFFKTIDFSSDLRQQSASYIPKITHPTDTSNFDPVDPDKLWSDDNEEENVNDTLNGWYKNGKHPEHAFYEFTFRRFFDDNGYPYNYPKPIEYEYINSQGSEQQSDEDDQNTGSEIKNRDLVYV

[13] = biological target: Serine/threonine-protein kinase MARK2 (Homo sapiens) (UniProt Q7KZI7); assay: Inhibition of human MARK2 isoform 4 at 100 nM using KKKVSRSGLYRSPSMPENLNRPR as substrate by [gamma-33P]-ATP assay
[14] = biological target: Mitogen-activated protein kinase kinase kinase 10 (Homo sapiens) (UniProt Q02779); assay: Inhibition of human MLK2 at 100 nM using MBP as substrate by [gamma-33P]-ATP assay
[15] = biological target: Serine/threonine-protein kinase Nek3 (Homo sapiens) (UniProt P51956); assay: Inhibition of human NEK3 at 100 nM using MBP as substrate by [gamma-33P]-ATP assay
Serine/threonine-protein kinase Nek3 (Homo sapiens), sequence (P51956 whole entry): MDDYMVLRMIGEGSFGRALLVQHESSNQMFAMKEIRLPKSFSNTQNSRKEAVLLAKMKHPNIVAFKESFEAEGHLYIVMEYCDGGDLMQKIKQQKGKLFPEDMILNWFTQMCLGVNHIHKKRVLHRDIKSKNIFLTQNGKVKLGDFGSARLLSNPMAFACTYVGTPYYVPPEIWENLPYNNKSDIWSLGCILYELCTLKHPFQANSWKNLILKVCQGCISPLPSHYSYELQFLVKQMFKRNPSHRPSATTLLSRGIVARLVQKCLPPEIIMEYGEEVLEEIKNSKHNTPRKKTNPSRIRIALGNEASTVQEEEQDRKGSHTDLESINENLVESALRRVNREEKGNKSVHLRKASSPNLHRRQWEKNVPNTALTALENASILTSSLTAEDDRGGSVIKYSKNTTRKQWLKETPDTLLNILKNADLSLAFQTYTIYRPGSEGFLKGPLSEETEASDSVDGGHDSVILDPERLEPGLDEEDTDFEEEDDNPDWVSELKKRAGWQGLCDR

[16] = biological target: cGMP-dependent protein kinase 1 (Homo sapiens) (UniProt Q13976); assay: Inhibition of human PKG1alpha at 100 nM using LRRASLG as substrate by [gamma-33P]-ATP assay
[17] = biological target: cGMP-dependent protein kinase 2 (Homo sapiens) (UniProt Q13237); assay: Inhibition of human PKG2 at 100 nM using LRRASLG as substrate by [gamma-33P]-ATP assay
[18] = biological target: Macrophage-stimulating protein receptor (Homo sapiens) (UniProt Q04912); assay: Inhibition of human RON at 100 nM using KKSRGDYMTMQIG as substrate by [gamma-33P]-ATP assay
[19] = biological target: Tyrosine-protein kinase Srms (Homo sapiens) (UniProt Q9H3Y6); assay: Inhibition of human SRMS at 100 nM using poly[Glu:Tyr] (4:1) as substrate by [gamma-33P]-ATP assay
Tyrosine-protein kinase Srms (Homo sapiens), sequence (Q9H3Y6 whole entry): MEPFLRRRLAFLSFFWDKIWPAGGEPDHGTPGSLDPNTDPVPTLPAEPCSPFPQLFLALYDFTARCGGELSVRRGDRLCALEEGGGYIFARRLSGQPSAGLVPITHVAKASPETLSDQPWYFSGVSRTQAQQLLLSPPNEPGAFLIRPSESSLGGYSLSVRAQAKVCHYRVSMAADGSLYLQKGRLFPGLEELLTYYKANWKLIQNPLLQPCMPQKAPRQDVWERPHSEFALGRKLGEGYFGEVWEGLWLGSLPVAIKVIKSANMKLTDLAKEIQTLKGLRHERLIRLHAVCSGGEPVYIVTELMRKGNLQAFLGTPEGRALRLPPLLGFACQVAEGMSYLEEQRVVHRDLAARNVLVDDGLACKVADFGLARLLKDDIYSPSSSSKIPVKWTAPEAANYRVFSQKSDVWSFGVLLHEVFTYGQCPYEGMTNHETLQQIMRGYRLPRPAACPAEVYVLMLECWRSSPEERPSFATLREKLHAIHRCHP

[20] = biological target: Testis-specific serine/threonine-protein kinase 1 (Homo sapiens) (UniProt Q9BXA7); assay: Inhibition of human STK22D at 100 nM using KKKVSRSGLYRSPSMPENLNRPR as substrate by [gamma-33P]-ATP assay
[21] = biological target: Serine/threonine-protein kinase 32B (Homo sapiens) (UniProt Q9NY57); assay: Inhibition of human STK32B at 100 nM using MBP as substrate by [gamma-33P]-ATP assay
Serine/threonine-protein kinase 32B (Homo sapiens), sequence (Q9NY57 whole entry): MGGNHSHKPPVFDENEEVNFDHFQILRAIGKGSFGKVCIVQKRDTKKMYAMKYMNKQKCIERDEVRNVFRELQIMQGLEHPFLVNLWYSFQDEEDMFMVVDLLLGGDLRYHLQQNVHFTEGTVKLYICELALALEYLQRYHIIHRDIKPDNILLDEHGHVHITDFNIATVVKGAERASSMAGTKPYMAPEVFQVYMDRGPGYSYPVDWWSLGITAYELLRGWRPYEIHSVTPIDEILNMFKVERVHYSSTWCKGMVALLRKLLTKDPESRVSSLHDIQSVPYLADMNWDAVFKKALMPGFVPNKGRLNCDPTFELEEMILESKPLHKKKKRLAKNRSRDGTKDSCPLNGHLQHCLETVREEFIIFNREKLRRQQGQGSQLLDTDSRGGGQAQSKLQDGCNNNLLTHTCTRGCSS

[22] = biological target: Serine/threonine-protein kinase TBK1 (Homo sapiens) (UniProt Q9UHD2); assay: Inhibition of human TBK1 at 100 nM using KRRRAL[pS]VASLPGL as substrate by [gamma-33P]-ATP assay
[23] = biological target: Dual specificity testis-specific protein kinase 2 (Homo sapiens) (UniProt Q96S53); assay: Inhibition of human TESK2 at 100 nM using cofilin as substrate by [gamma-33P]-ATP assay
[24] = biological target: High affinity nerve growth factor receptor (Homo sapiens) (UniProt P04629); assay: Inhibition of human TRKA at 100 nM using poly[Glu:Tyr] (4:1) as substrate by [gamma-33P]-ATP assay
High affinity nerve growth factor receptor (Homo sapiens), sequence (P04629 33-796 limits assumed): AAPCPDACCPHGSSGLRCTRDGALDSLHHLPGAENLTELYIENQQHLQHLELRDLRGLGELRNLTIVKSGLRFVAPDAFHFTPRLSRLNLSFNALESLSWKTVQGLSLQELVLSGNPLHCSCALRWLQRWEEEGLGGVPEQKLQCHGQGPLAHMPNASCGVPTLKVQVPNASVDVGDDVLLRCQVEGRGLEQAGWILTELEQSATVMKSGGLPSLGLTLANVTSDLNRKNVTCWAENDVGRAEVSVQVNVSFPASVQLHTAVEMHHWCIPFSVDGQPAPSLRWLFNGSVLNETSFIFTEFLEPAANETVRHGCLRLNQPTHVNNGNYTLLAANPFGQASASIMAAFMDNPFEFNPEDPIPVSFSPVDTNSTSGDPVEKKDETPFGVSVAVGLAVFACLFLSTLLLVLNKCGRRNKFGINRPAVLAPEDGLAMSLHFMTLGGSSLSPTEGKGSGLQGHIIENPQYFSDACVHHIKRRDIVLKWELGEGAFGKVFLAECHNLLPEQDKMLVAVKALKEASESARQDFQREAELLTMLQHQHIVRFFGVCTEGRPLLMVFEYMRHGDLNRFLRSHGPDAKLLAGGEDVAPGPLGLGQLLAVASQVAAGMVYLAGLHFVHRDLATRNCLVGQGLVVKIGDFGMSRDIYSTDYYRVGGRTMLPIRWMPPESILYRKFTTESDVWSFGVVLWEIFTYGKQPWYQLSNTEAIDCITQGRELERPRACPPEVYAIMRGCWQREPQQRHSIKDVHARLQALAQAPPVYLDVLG

[25] = biological target: Tau-tubulin kinase 1 (Homo sapiens) (UniProt Q5TCY1); assay: Inhibition of human TTBK1 at 100 nM using MBP as substrate by [gamma-33P]-ATP assay
[26] = biological target: Serine/threonine-protein kinase ULK3 (Homo sapiens) (UniProt Q6PHR2); assay: Inhibition of human ULK3 at 100 nM using MBP as substrate by [gamma-33P]-ATP assay
[27] = biological target: Serine/threonine-protein kinase mTOR (Homo sapiens, UniProt P42345); assay: Inhibition of human mTOR at 100 nM using 4EBP1 as substrate by [gamma-33P]-ATP assay
[28] = biological target: Receptor-interacting serine/threonine-protein kinase 4 (Homo sapiens) (UniProt P57078); assay: Inhibition of human RIPK4 at 100 nM using histone H2A as substrate by [gamma-33P]-ATP assay
HeLa [29] = assay: Inhibition of colony formation in human HeLa cells at 1.25 uM incubated for 2 weeks crystal violet staining based assay; type: functional; details: 336 h
HeLa [30] = assay: Antitumor activity against human HeLa cells xenografted in ig dosed BALB/c nude mouse assessed as tumor growth inhibition administered for 30 days measured every 3 days during compound dosing relative to control; type: functional, organism-based

SMILES: COc1ccc(N2C(=O)COc3ccc(-c4cnc(OC)c(NS(=O)(=O)c5ccc(F)cc5)c4)cc32)cc1
- IC50 (PI3K p110 beta/p85 alpha): 94.5 nM
- inhibition [1]: -2.65%
- inhibition [2]: 3.37%
- inhibition [3]: 14.8%
- inhibition [4]: 4%
- inhibition [5]: 0.16%
- inhibition [6]: 9.71%
- inhibition [7]: -4.54%
- inhibition [8]: -4.85%
- inhibition [9]: -0.54%
- inhibition [10]: 22.4%
- inhibition [11]: -9.84%
- inhibition [12]: 10.1%
- inhibition [13]: 1.93%
- inhibition [14]: -1.63%
- inhibition [15]: 10.8%
- inhibition [16]: 4.25%
- inhibition [17]: 1.95%
- inhibition [18]: -0.5%
- inhibition [19]: 14.2%
- inhibition [20]: -6.47%
- inhibition [21]: -3.89%
- inhibition [22]: 5.37%
- inhibition [23]: 0.47%
- inhibition [24]: 5.12%
- inhibition [25]: -1.55%
- inhibition [26]: 5.64%
- inhibition [27]: 67.5%
- inhibition [28]: 1.41%
- inhibition at 1.25 µM (HeLa [29]): > 50%
- TGI (HeLa [30]): Dose-dependent effect
